{
  "source": "PubChem BioAssay AID1259407",
  "about": "(Chemical Carcinogenesis Research Information System (CCRIS), 2018)",
  "tested_on": "CCRIS mutagenicity, Ames/micronucleus/aberration tests",
  "experiment": "CCRIS mutagenicity studies",
  "key": {"[1]": {"details": "Test System: AMES SALMONELLA TYPHIMURIUM, Strain/Indicator: TA98, Metabolic Activation: NONE, Method: STANDARD PLATE"}, "[2]": {"details": "Test System: AMES SALMONELLA TYPHIMURIUM, Strain/Indicator: TA100, Metabolic Activation: NONE, Method: STANDARD PLATE"}, "[3]": {"details": "Test System: AMES SALMONELLA TYPHIMURIUM, Strain/Indicator: TA98, Metabolic Activation: NONE, Method: PREINCUBATION"}, "[4]": {"details": "Test System: AMES SALMONELLA TYPHIMURIUM, Strain/Indicator: TA100, Metabolic Activation: NONE, Method: PREINCUBATION"}},
  "note": "Activity calls are given as the source filed them. No rule for the calls is given here.",
  "data": [
    {"smiles": "c1ccc(CSSCc2ccccc2)cc1", "values": [
      {"measurement": "mutagenic call", "setting": "Test System: AMES SALMONELLA TYPHIMURIUM, Strain/Indicator: TA97, Metabolic Activation: NONE, Method: STANDARD PLATE", "result": "inactive; negative"},
      {"measurement": "mutagenic call", "setting": "Test System: AMES SALMONELLA TYPHIMURIUM, Strain/Indicator: TA97, Metabolic Activation: S-9, Method: STANDARD PLATE", "result": "inactive; negative"},
      {"measurement": "mutagenic call", "setting": "[1]", "result": "inactive; negative"},
      {"measurement": "mutagenic call", "setting": "Test System: AMES SALMONELLA TYPHIMURIUM, Strain/Indicator: TA98, Metabolic Activation: S-9, Method: STANDARD PLATE", "result": "inactive; negative"},
      {"measurement": "mutagenic call", "setting": "[2]", "result": "inactive; negative"},
      {"measurement": "mutagenic call", "setting": "Test System: AMES SALMONELLA TYPHIMURIUM, Strain/Indicator: TA100, Metabolic Activation: S-9, Method: STANDARD PLATE", "result": "inactive; negative"},
      {"measurement": "mutagenic call", "setting": "Test System: AMES SALMONELLA TYPHIMURIUM, Strain/Indicator: TA102, Metabolic Activation: NONE, Method: STANDARD PLATE", "result": "active; positive"},
      {"measurement": "mutagenic call", "setting": "Test System: AMES SALMONELLA TYPHIMURIUM, Strain/Indicator: TA102, Metabolic Activation: S-9, Method: STANDARD PLATE", "result": "active; positive"}
    ]},
    {"smiles": "O=C(O)c1cc2c(c3c1c([N+](=O)[O-])cc1c(O)cccc13)OCO2", "values": [
      {"measurement": "mutagenic call", "setting": "[2]", "result": "active; positive"},
      {"measurement": "mutagenic call", "setting": "Test System: AMES SALMONELLA TYPHIMURIUM, Strain/Indicator: TA100, Metabolic Activation: RAT, LIVER, S-9, AROCLOR 1254, Method: STANDARD PLATE", "result": "inactive; negative"},
      {"measurement": "mutagenic call", "setting": "Test System: AMES SALMONELLA TYPHIMURIUM, Strain/Indicator: TA1537, Metabolic Activation: NONE, Method: STANDARD PLATE", "result": "active; positive"},
      {"measurement": "mutagenic call", "setting": "Test System: AMES SALMONELLA TYPHIMURIUM, Strain/Indicator: TA1537, Metabolic Activation: RAT, LIVER, S-9, AROCLOR 1254, Method: STANDARD PLATE", "result": "inactive; negative"}
    ]},
    {"smiles": "O=C1C=CC(=O)C(c2ccc(Cl)cc2)=C1", "values": [
      {"measurement": "mutagenic call", "setting": "End Point: In vitro micronucleus, Test System: Chinese hamster lung V79 cells, Metabolic Activation: None", "result": "active; positive"}
    ]},
    {"smiles": "CCN(N=O)C(=O)N(C)C", "values": [
      {"measurement": "mutagenic call", "setting": "Test System: AMES SALMONELLA TYPHIMURIUM, Strain/Indicator: TA1535, Metabolic Activation: NONE, Method: STANDARD PLATE", "result": "active; positive"},
      {"measurement": "mutagenic call", "setting": "Test System: AMES SALMONELLA TYPHIMURIUM, Strain/Indicator: TA1535, Metabolic Activation: RAT, LIVER, S-9, BETA-NAPHTHOFLAVONE AND PHENOBARBITAL, Method: STANDARD PLATE", "result": "active; positive"}
    ]},
    {"smiles": "O=S(=O)(O)OCc1c2ccccc2c2ccc3cccc4ccc1c2c43", "values": [
      {"measurement": "mutagenic call", "setting": "[3]", "result": "active; positive"},
      {"measurement": "mutagenic call", "setting": "[1]", "result": "active; positive"},
      {"measurement": "mutagenic call", "setting": "[4]", "result": "active; positive"},
      {"measurement": "mutagenic call", "setting": "Test System: CHINESE HAMSTER V-79, Strain/Indicator: V-79 (HGPRT)/6-THIOGUANINE, Metabolic Activation: NONE", "result": "active; positive"},
      {"measurement": "mutagenic call", "setting": "Test System: CHINESE HAMSTER V-79, Strain/Indicator: V-79 (NA/K-ATPASE)/OUABAIN, Metabolic Activation: NONE", "result": "active; positive"}
    ]},
    {"smiles": "Cc1c(O)cc([N+](=O)[O-])cc1[N+](=O)[O-]", "values": [
      {"measurement": "mutagenic call", "setting": "Test System: AMES SALMONELLA TYPHIMURIUM, Strain/Indicator: TA98, Metabolic Activation: RAT, LIVER, S-9, KANECHLOR 500, Method: PREINCUBATION", "result": "inactive; negative"},
      {"measurement": "mutagenic call", "setting": "[4]", "result": "inactive; negative"},
      {"measurement": "mutagenic call", "setting": "Test System: AMES SALMONELLA TYPHIMURIUM, Strain/Indicator: TA100, Metabolic Activation: RAT, LIVER, S-9, KANECHLOR 500, Method: PREINCUBATION", "result": "inactive; negative"}
    ]},
    {"smiles": "O=[N+]([O-])c1cccc2c1ccc1ccccc12", "values": [
      {"measurement": "mutagenic call", "setting": "Test System: AMES SALMONELLA TYPHIMURIUM, Strain/Indicator: TA98(1,8-DNP6), Metabolic Activation: NONE, Method: STANDARD PLATE", "result": "active; positive"},
      {"measurement": "mutagenic call", "setting": "Test System: AMES SALMONELLA TYPHIMURIUM, Strain/Indicator: TA98(NR), Metabolic Activation: NONE, Method: STANDARD PLATE", "result": "active; positive"},
      {"measurement": "mutagenic call", "setting": "[1]", "result": "active; positive"},
      {"measurement": "mutagenic call", "setting": "[2]", "result": "active; positive"},
      {"measurement": "mutagenic call", "setting": "Test System: AMES SALMONELLA TYPHIMURIUM, Strain/Indicator: YG1021, Metabolic Activation: NONE, Method: STANDARD PLATE", "result": "active; positive"},
      {"measurement": "mutagenic call", "setting": "Test System: AMES SALMONELLA TYPHIMURIUM, Strain/Indicator: YG1024, Metabolic Activation: NONE, Method: STANDARD PLATE", "result": "active; positive"},
      {"measurement": "mutagenic call", "setting": "Test System: AMES SALMONELLA TYPHIMURIUM, Strain/Indicator: YG1026, Metabolic Activation: NONE, Method: STANDARD PLATE", "result": "active; positive"},
      {"measurement": "mutagenic call", "setting": "Test System: AMES SALMONELLA TYPHIMURIUM, Strain/Indicator: YG1029, Metabolic Activation: NONE, Method: STANDARD PLATE", "result": "active; positive"}
    ]},
    {"smiles": "O=C1NC(=O)C(Cl)C1=C(Cl)Cl", "note": "(stereo not drawn)", "values": [
      {"measurement": "mutagenic call", "setting": "[2]", "result": "active; positive"}
    ]},
    {"smiles": "c1ccc(-c2cccc(-c3ccccn3)n2)nc1", "values": [
      {"measurement": "mutagenic call", "setting": "Test System: AMES SALMONELLA TYPHIMURIUM, Strain/Indicator: TA97, Metabolic Activation: RAT, LIVER, S-9, PHENOBARBITAL, Method: STANDARD PLATE", "result": "active; positive"},
      {"measurement": "mutagenic call", "setting": "Test System: AMES SALMONELLA TYPHIMURIUM, Strain/Indicator: TA98, Metabolic Activation: RAT, LIVER, S-9, PHENOBARBITAL, Method: STANDARD PLATE", "result": "inactive; negative"},
      {"measurement": "mutagenic call", "setting": "Test System: AMES SALMONELLA TYPHIMURIUM, Strain/Indicator: TA100, Metabolic Activation: RAT, LIVER, S-9, PHENOBARBITAL, Method: STANDARD PLATE", "result": "active; positive"},
      {"measurement": "mutagenic call", "setting": "Test System: AMES SALMONELLA TYPHIMURIUM, Strain/Indicator: TA1535, Metabolic Activation: RAT, LIVER, S-9, PHENOBARBITAL, Method: STANDARD PLATE", "result": "inactive; negative"},
      {"measurement": "mutagenic call", "setting": "Test System: AMES SALMONELLA TYPHIMURIUM, Strain/Indicator: TA1537, Metabolic Activation: RAT, LIVER, S-9, PHENOBARBITAL, Method: STANDARD PLATE", "result": "inactive; negative"},
      {"measurement": "mutagenic call", "setting": "Test System: AMES SALMONELLA TYPHIMURIUM, Strain/Indicator: TA1538, Metabolic Activation: RAT, LIVER, S-9, PHENOBARBITAL, Method: STANDARD PLATE", "result": "inactive; negative"}
    ]},
    {"smiles": "CCCCCCCCCCOC[N+](C)(C)CCCCCCCC", "values": [
      {"measurement": "mutagenic call", "setting": "Test System: BACILLUS SUBTILIS, Strain/Indicator: H17/REC, Metabolic Activation: NONE, Method: STANDARD PLATE", "result": "inactive; negative"},
      {"measurement": "mutagenic call", "setting": "Test System: BACILLUS SUBTILIS, Strain/Indicator: M45, Metabolic Activation: NONE, Method: STANDARD PLATE", "result": "inactive; negative"}
    ]},
    {"smiles": "[Li+]", "values": [
      {"measurement": "mutagenic call", "setting": "Test System: AMES SALMONELLA TYPHIMURIUM, Strain/Indicator: TA98, Metabolic Activation: HAMSTER, LIVER, S-9, AROCLOR 1254, Method: PREINCUBATION", "result": "inactive; negative"},
      {"measurement": "mutagenic call", "setting": "[3]", "result": "inactive; negative"},
      {"measurement": "mutagenic call", "setting": "Test System: AMES SALMONELLA TYPHIMURIUM, Strain/Indicator: TA98, Metabolic Activation: RAT, LIVER, S-9, AROCLOR 1254, Method: PREINCUBATION", "result": "inactive; negative"},
      {"measurement": "mutagenic call", "setting": "Test System: AMES SALMONELLA TYPHIMURIUM, Strain/Indicator: TA100, Metabolic Activation: HAMSTER, LIVER, S-9, AROCLOR 1254, Method: PREINCUBATION", "result": "inactive; negative"},
      {"measurement": "mutagenic call", "setting": "[4]", "result": "inactive; negative"},
      {"measurement": "mutagenic call", "setting": "Test System: AMES SALMONELLA TYPHIMURIUM, Strain/Indicator: TA100, Metabolic Activation: RAT, LIVER, S-9, AROCLOR 1254, Method: PREINCUBATION", "result": "inactive; negative"},
      {"measurement": "mutagenic call", "setting": "Test System: AMES SALMONELLA TYPHIMURIUM, Strain/Indicator: TA1535, Metabolic Activation: HAMSTER, LIVER, S-9, AROCLOR 1254, Method: PREINCUBATION", "result": "inactive; negative"},
      {"measurement": "mutagenic call", "setting": "Test System: AMES SALMONELLA TYPHIMURIUM, Strain/Indicator: TA1535, Metabolic Activation: NONE, Method: PREINCUBATION", "result": "inactive; negative"},
      {"measurement": "mutagenic call", "setting": "Test System: AMES SALMONELLA TYPHIMURIUM, Strain/Indicator: TA1535, Metabolic Activation: RAT, LIVER, S-9, AROCLOR 1254, Method: PREINCUBATION", "result": "inactive; negative"},
      {"measurement": "mutagenic call", "setting": "Test System: AMES SALMONELLA TYPHIMURIUM, Strain/Indicator: TA1537, Metabolic Activation: HAMSTER, LIVER, S-9, AROCLOR 1254, Method: PREINCUBATION", "result": "inactive; negative"},
      {"measurement": "mutagenic call", "setting": "Test System: AMES SALMONELLA TYPHIMURIUM, Strain/Indicator: TA1537, Metabolic Activation: NONE, Method: PREINCUBATION", "result": "inactive; negative"},
      {"measurement": "mutagenic call", "setting": "Test System: AMES SALMONELLA TYPHIMURIUM, Strain/Indicator: TA1537, Metabolic Activation: RAT, LIVER, S-9, AROCLOR 1254, Method: PREINCUBATION", "result": "inactive; negative"},
      {"measurement": "mutagenic call", "setting": "Test System: E. COLI, Strain/Indicator: WP2 UVRA, Metabolic Activation: NONE, Method: SPOT TEST", "result": "inactive; negative"}
    ]}
  ]
}
